What was measured:
[1] = system: peripheral blood cells from essential thrombocythemia (ET) patient; test: Apoptosis induction (Annexin V flow cytometry), ET primary cells; type: cell-based, human; conditions: sample PB-1, ET; camptothecin 10 μM positive control; 24 hours
Protocol: (§1) An engineered human activating antibody that binds to EphA3 was evaluated for the ability to induce apoptosis in vitro in primary cells isolated from patients or individuals suffering from myeloproliferative disorders. Cells were seeded at 2.5×10^5 cells/well in 96-well “U”-bottom plates in 0.1 ml culture medium (RPMI 1640 with 10% fetal bovine serum). Anti-EphA3 antibody or human IgG1 isotype control antibody was added to final concentrations between 10 μg/ml and 1 ng/ml and the plates were incubated at 37° C. and 5% carbon dioxide in a tissue-culture incubator for 24 hours. As a positive control for apoptosis induction, separate cell samples were incubated with camptothecin (10 μM; Calbiochem). At the end of the incubation, cells were harvested and washed by centrifugation at 1000 rpm for 5 min followed by incubation in 0.1 ml of 1× Annexin V binding buffer (BD Pharmingen, Cat #556547, component no. 51-66121E) containing 5 μl FITC-conjugated Annexin V (BD Pharmingen, component no. 51-65874×) and 5 μl Propidium Iodide (component no. 51-66211E) for 15 minutes at room temperature in the dark. Four hundred μl of 1× binding buffer was added to each tube and annexin V-staining apoptotic cells were identified by flow cytometry. FIG. 4 provides data showing apoptosis activity of a human engineered antibody.

[2] = system: peripheral blood cells from polycythemia vera (PV) patient; test: Apoptosis induction (Annexin V flow cytometry), PV primary cells; type: cell-based, human; conditions: sample PB-2, PV; camptothecin 10 μM positive control; 24 hours
Protocol: as §1

[3] = system: bone marrow cells from AML patients; test: Apoptosis induction (Annexin V flow cytometry), AML primary cells; type: cell-based, human; conditions: camptothecin 10 μM positive control, 24 hours
Protocol: An engineered human activating antibody that binds to EphA3 was evaluated for the ability to induce apoptosis in vitro in primary cells isolated from patients or individuals suffering from myeloproliferative disorders. Cells were seeded at 2.5×10^5 cells/well in 96-well “U”-bottom plates in 0.1 ml culture medium (RPMI 1640 with 10% fetal bovine serum). Anti-EphA3 antibody or human IgG1 isotype control antibody was added to final concentrations between 10 μg/ml and 1 ng/ml and the plates were incubated at 37° C. and 5% carbon dioxide in a tissue-culture incubator for 24 hours. As a positive control for apoptosis induction, separate cell samples were incubated with camptothecin (10 μM; Calbiochem). […]
In these samples, in each case in which CD123^+CD34^+CD38^− leukemic stem cells (LSC) could be identified, 100% of these LSC were also positive for EphA3 expression. In the majority of samples, there is good correlation between the percent of cells killed either by ADCC or apoptosis mediated by an engineered human anti-EphA3 antibody and the proportion of cells detected as positive for EphA3 by flow cytometry, indicating specificity of the antibody for EphA3-expressing cells.

EphA3 antigen = EphA3 antigen (UniProt P29320); test: ELISA on EphA3 antigen
Sequence of UniProt P29320 (P29320 21-541 limits assumed): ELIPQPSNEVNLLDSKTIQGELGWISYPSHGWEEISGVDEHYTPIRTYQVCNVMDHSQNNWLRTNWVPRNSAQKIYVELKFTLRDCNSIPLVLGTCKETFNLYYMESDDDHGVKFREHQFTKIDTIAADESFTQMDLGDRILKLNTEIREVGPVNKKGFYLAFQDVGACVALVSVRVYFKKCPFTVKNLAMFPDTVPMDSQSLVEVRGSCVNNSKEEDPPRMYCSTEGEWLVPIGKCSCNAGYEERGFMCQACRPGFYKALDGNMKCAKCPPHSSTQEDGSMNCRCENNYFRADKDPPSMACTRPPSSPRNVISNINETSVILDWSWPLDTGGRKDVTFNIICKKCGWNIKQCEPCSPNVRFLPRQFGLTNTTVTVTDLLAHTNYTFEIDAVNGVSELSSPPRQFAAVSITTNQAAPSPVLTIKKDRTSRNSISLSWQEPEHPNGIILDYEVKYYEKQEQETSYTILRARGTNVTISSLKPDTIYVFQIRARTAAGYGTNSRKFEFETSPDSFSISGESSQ

Compound	Camptothecin-mediated apoptosis (% cell death) [1]	Camptothecin-mediated apoptosis (% cell death) [2]	Camptothecin-mediated apoptosis (% cell death) ([3]; sample BM, 06, AML)	Camptothecin-mediated apoptosis (% cell death) ([3]; sample BM, 07, AML)	AFFINITY (EphA3 antigen)
CC[C@@]1(O)C(=O)OCc2c1cc1n(c2=O)Cc2cc3ccccc3nc2-1 [Camptothecin, camptothecin]	78%	73.2%	59.8%	47.8%	
monoclonal antibody IIIA4					2.5 nM

Source: patent US8834870B2, “Treatment of leukemias and chronic myeloproliferative diseases with antibodies to EphA3” (Kalobios Pharmaceuticals, Inc., priority 2009, dated 2014)
